Test results: article PMC2892826 (Cell cycle (Georgetown, Tex.), 2009)
Where two headings read alike, the source gives them in different places.

Experiments:
[1] = system: primary multiple myeloma cells from patients' bone marrow; test: Viability of primary MM cells; format: cell-based, human; conditions: read-out: IC50 Viability
[2] = system: RPMI-8226 multiple myeloma cells; test: MTT cell viability assay; format: cell-based, human; conditions: read-out: IC50 cell viability (MTT)
[3] = system: primary multiple myeloma cells from patients' bone marrow; test: Cell death of primary MM cells; format: cell-based, human; conditions: read-out: IC50 Cell Death
[4] = system: C7 (HPDE6-C7) normal/immortalized pancreatic duct epithelial cells; test: MTT cell viability assay; format: cell-based, human; conditions: read-out: IC50 cell viability (MTT)
[5] = system: primary multiple myeloma cells from patients' bone marrow; test: Proliferation of primary MM cells; format: cell-based, human; conditions: read-out: IC50 Proliferation
T80-Hras ovarian cells = test: MTT cell viability assay; format: cell-based, human; conditions: read-out: IC50 cell viability (MTT), T80-Hras
A549 human lung tumors = test: A549 xenograft in nude mice; format: in vivo; conditions: A549 s.c. xenograft, 1 mpk i.p. 2x weekly
[6] = system: U266 multiple myeloma cells; test: MTT cell viability assay; format: cell-based, human; conditions: read-out: IC50 cell viability (MTT)
CaLu-1 lung cancer cells = test: MTT cell viability assay; format: cell-based, human; conditions: read-out: IC50 cell viability (MTT)
[7] = system: C7-Kras (HPDE6-C7K-ras) pancreatic cells; test: MTT cell viability assay; format: cell-based, human
[8] = biological target: CT-L activity of purified 20S proteasome (Oryctolagus cuniculus, UniProt G1SU71+G1T4Q9); test: Proteolytic activity of purified 20S proteasome, CT-L; format: biochemical, rabbit; conditions: read-out: IC50 CT-L; purified 20S proteasome, in vitro
Chain of CT-L activity of purified 20S proteasome (G1T4Q9 60-263): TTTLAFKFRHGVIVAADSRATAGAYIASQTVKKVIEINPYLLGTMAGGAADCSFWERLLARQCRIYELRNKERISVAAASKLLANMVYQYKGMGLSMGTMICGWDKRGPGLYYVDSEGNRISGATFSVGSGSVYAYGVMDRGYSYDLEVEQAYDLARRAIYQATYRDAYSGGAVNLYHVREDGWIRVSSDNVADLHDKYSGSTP
Chain of CT-L activity of purified 20S proteasome (G1SU71 29-241): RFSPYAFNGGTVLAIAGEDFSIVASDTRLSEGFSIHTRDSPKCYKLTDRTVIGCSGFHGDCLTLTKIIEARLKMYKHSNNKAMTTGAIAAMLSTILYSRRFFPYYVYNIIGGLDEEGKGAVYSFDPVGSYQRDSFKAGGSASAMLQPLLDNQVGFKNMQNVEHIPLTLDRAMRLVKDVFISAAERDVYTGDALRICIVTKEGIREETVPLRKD

[9] = biological target: PGPH activity of purified 20S proteasome (Oryctolagus cuniculus, UniProt G1T235); test: Proteolytic activity of purified 20S proteasome, PGPH; format: biochemical, rabbit; conditions: read-out: IC50 PGPH, in vitro
Chain of PGPH activity of purified 20S proteasome (G1T235 96-265): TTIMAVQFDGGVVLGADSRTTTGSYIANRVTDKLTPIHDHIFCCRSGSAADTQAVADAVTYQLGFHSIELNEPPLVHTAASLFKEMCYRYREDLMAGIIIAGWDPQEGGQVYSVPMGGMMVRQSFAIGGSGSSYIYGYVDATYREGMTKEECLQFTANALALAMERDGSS

[10] = biological target: T-L activity of purified 20S proteasome (Oryctolagus cuniculus, UniProt G1SWK8); test: Proteolytic activity of purified 20S proteasome, T-L; format: biochemical, rabbit; conditions: read-out: IC50 T-L, in vitro
Chain of T-L activity of purified 20S proteasome (G1SWK8 44-271): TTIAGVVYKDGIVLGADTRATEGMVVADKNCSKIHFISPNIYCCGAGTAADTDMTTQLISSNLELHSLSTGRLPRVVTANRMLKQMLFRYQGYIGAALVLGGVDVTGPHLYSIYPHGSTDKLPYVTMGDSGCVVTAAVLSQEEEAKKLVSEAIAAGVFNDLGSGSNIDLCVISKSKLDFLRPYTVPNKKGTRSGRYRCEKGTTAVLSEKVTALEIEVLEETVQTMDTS

[11] = biological target: hepatic CT-L, T-L, and PGPH activities (Mus musculus, UniProt O09061+O55234+P70195+Q60692); format: in vivo, nude mice; conditions: livers of A549 tumor-bearing mice, 1 mpk i.p., 2 h after last injection
[12] = biological target: tumor T-L activity of the proteasome (Homo sapiens, UniProt Q99436); test: Proteasome activity in A549 tumor lysates after in vivo treatment, T-L; design: species or system nude mice; conditions: A549 tumors, 1 mpk i.p., 2 h after last injection
[13] = Tolerability in treated mice; format: in vivo; conditions: mice treated with PI-083
[14] = system: MCF-10A immortalized non-transformed breast cells; test: MTT cell viability assay; format: cell-based, human
[15] = biological target: T1, CT-L activity of the proteasome in primary multiple myeloma cells (Homo sapiens, UniProt P20618+P28074); test: CT-L activity in primary MM cells from patients' bone marrow; format: cell-based; conditions: read-out: IC50 CT-L Activity
T1 sequence (P28074 60-263): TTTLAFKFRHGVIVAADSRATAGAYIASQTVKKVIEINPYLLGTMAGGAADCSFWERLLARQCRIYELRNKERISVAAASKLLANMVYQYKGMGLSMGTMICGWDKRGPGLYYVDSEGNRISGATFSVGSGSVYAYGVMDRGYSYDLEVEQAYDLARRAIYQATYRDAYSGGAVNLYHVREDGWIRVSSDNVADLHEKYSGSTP
T1 sequence (P20618 29-241): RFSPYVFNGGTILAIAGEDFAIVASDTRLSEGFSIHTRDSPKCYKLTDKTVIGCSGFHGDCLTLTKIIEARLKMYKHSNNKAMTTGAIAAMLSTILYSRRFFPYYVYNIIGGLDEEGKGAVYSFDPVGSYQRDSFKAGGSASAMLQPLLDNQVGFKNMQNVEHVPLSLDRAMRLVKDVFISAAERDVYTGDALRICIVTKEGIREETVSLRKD

A549 lung cancer cells = test: MTT cell viability assay; format: cell-based, human; conditions: read-out: IC50 cell viability (MTT)
[16] = system: MCF-7/MCF-10A, T80-Hras/T80, C7-Kras/C7 cells; test: Proliferation by Trypan Blue cell counting in 3 pairs of cell lines; format: cell-based, human; conditions: 24 h, Fig. 3
[17] = system: MCF-7 human breast tumors; test: MCF-7 xenograft in nude mice; format: in vivo; conditions: MCF-7 s.c. xenograft, 1 mpk i.p. 2x weekly
[18] = system: DU-145 prostate cancer cells; test: MTT cell viability assay; format: cell-based, human; conditions: read-out: IC50 cell viability (MTT)
[19] = biological target: CT-L activity in MCF-7/MCF-10A, T80-Hras/T80, C7-Kras/C7 cells (Homo sapiens, UniProt P20618+P28074); format: cell-based; conditions: 24 h, 3 pairs of cell lines, Fig. 2
[20] = read-out: IC50 cell viability (MTT), 24 h
[21] = read-out: IC50 cell viability (MTT), 72 h

Q: With O=C1C(Cl)=C(Nc2ccc(S(=O)(=O)Nc3ccccn3)cc2)C(=O)c2ccccc21 [PI-083] as the compound, how does the IC50 ([1]; patient 2, 24 h) read?
A: > 10000 nM

Q: What about the IC50 ([1]; patient 3, 24 h) of the same compound?
A: > 10000 nM

Q: And the IC50 ([1]; patient 4, 24 h)?
A: 2200 nM

Q: And the IC50 ([1]; patient 4, 72 h)?
A: 2200 nM

Q: And the IC50 ([1]; patient 5, 24 h)?
A: 3400 nM

Q: What about the IC50 ([1]; patient 6, 72 h) of the same compound?
A: 1400 nM

Q: And the IC50 ([1]; patient 7, 24 h)?
A: 1800 nM

Q: And the IC50 ([1]; patient 7, 48 h)?
A: 1400 nM

Q: And the IC50 ([1]; patient 7, 72 h)?
A: 1300 nM

Q: What about the IC50 ([1]; patient 8, 24 h) of the same compound?
A: 2000 nM

Q: And the IC50 ([1]; patient 8, 72 h)?
A: 1800 nM

Q: And the IC50 ([1]; patient 9, 24 h)?
A: 1400 nM

Q: What about the IC50 ([1]; patient 10, 24 h) of the same compound?
A: > 10000 nM

Q: And the IC50 ([2]; RPMI-8226, 24 h)?
A: 7400 ± 380 nM

Q: What about the IC50 ([2]; RPMI-8226, 72 h) of the same compound?
A: 10000 ± 4000 nM

Q: And the IC50 ([3]; patient 5, 24 h)?
A: 1100 nM

Q: And the IC50 ([3]; patient 10, 24 h)?
A: 9000 nM

Q: And the IC50 ([4]; C7, 24 h)?
A: 5100 ± 530 nM

Q: What about the IC50 ([4]; C7, 72 h) of the same compound?
A: 4200 ± 1600 nM

Q: And the IC50 ([5]; patient 1, 24 h)?
A: 5000 nM

Q: What about the IC50 ([5]; patient 2, 24 h) of the same compound?
A: 2900 nM

Q: And the IC50 ([5]; patient 4, 24 h)?
A: 1300 nM

Q: What about the IC50 ([5]; patient 5, 24 h) of the same compound?
A: 2200 nM

Q: What about the IC50 ([5]; patient 6, 24 h) of the same compound?
A: 2200 nM

Q: What about the IC50 ([5]; patient 10, 24 h) of the same compound?
A: 10000 nM

Q: What about the IC50 (T80-Hras ovarian cells; 24 h) of the same compound?
A: 1500 ± 570 nM

Q: What about the IC50 (T80-Hras ovarian cells; 72 h) of the same compound?
A: 2100 ± 400 nM

Q: What about the tumor growth inhibition (A549 human lung tumors) of the same compound?
A: 54%

Q: And the average tumor size (A549 human lung tumors; start ~200 mm^3, 16 days)?
A: about 511 ± 134 mm^3

Q: What about the IC50 ([6]; U266, 24 h) of the same compound?
A: 23000 ± 1700 nM

Q: What about the IC50 ([6]; U266, 72 h) of the same compound?
A: 7000 ± 1500 nM

Q: And the IC50 (CaLu-1 lung cancer cells; CaLu-1, 24 h)?
A: 7300 ± 430 nM

Q: And the IC50 (CaLu-1 lung cancer cells; CaLu-1, 72 h)?
A: 4900 ± 1200 nM

Q: What about the IC50 [7, 20] of the same compound?
A: 2400 ± 230 nM

Q: And the IC50 [7, 21]?
A: 1900 ± 200 nM

Q: What about the IC50 [8] of the same compound?
A: 1000 ± 630 nM

Q: And the IC50 [9]?
A: 4500 ± 1200 nM

Q: What about the IC50 [10] of the same compound?
A: 4500 ± 1400 nM

Q: What about the “effect on liver proteasome activities (CT-L, T-L, PGPH)” value [11] of the same compound?
A: did not inhibit

Q: What about the “inhibition of tumor T-L activity vs vehicle-treated controls” value [12] of the same compound?
A: 12%

Q: And the “weight, appetite, activity of treated mice” value [13]?
A: no weight loss, change in appetite or activity

Q: What about the IC50 [14, 20] of the same compound?
A: 17000 ± 860 nM

Q: What about the IC50 [14, 21] of the same compound?
A: 4200 ± 2100 nM

Q: What about the IC50 ([15]; patient 3, 24 h) of the same compound?
A: 1400 nM

Q: And the IC50 ([15]; patient 6, 24 h)?
A: 1200 nM

Q: And the IC50 ([15]; patient 9, 24 h)?
A: 1800 nM

Q: And the IC50 (A549 lung cancer cells; A549, 24 h)?
A: 41000 ± 17000 nM

Q: What about the IC50 (A549 lung cancer cells; A549, 72 h) of the same compound?
A: 11000 ± 6700 nM

Q: What about the “inhibition of proliferation, cancer vs non-transformed cells” value [16] of the same compound?
A: more potently than their non-transformed

Q: What about the tumor growth inhibition [17] of the same compound?
A: 84%

Q: What about the average tumor size ([17]; start ~200 mm^3, 16 days) of the same compound?
A: about 396 ± 137 mm^3

Q: What about the IC50 ([18]; DU-145, 24 h) of the same compound?
A: 8600 ± 630 nM

Q: And the IC50 ([18]; DU-145, 72 h)?
A: 5000 ± 720 nM

Q: What about the “selectivity of CT-L inhibition, tumor vs non-transformed cells” value [19] of the same compound?
A: inhibited more selectively the CT-L activity in tumor over non-transformed cells
